Reference: patent publication US12419889B2, “Methods of treating chronic spontaneous urticaria using a bruton's tyrosine kinase inhibitor” (NOVARTIS AG, priority 2019, dated 2025)

Experiments:
BTK [1] = target: T1, BTK (Homo sapiens, UniProt Q06187); assay: BTK occupancy in human whole blood (free and total BTK, ELISA on MSD platform); format: in vivo
T1 construct: from tissue; host or cells: human whole (peripheral) blood of healthy volunteers and atopic subjects
Description: Pharmacodynamics (PD) was characterized by assessing target occupancy and distal pathway inhibition. Measurements of BTK occupancy in human whole blood (derived as ratio of free and total BTK), served as direct marker of therapeutic target engagement.
Compound of formula (I) is an irreversible inhibitor of BTK, the extent and duration of BTK occupancy were determined.
The relationship between dose and pharmacodynamics was characterized by measurements of BTK occupancy in human blood (derived as ratio of free and total BTK), a direct marker of therapeutic target engagement. BTK occupancy was determined for single ascending doses ranging 0.5 to 400 mg, for q.d. multiple ascending doses ranging from of 10 mg and 400 mg, and for b.i.d. multiple ascending doses of 100 mg and 200 mg.

BTK [2] = target: T2, BTK (Mus musculus, UniProt P35991); assay: BTK occupancy in spleen in mouse RPA and PCA models; format: in vivo; settings: mouse RPA, 5 h after dosing
T2 construct: from tissue; host or cells: mouse spleen
T2 sequence (P35991 whole entry): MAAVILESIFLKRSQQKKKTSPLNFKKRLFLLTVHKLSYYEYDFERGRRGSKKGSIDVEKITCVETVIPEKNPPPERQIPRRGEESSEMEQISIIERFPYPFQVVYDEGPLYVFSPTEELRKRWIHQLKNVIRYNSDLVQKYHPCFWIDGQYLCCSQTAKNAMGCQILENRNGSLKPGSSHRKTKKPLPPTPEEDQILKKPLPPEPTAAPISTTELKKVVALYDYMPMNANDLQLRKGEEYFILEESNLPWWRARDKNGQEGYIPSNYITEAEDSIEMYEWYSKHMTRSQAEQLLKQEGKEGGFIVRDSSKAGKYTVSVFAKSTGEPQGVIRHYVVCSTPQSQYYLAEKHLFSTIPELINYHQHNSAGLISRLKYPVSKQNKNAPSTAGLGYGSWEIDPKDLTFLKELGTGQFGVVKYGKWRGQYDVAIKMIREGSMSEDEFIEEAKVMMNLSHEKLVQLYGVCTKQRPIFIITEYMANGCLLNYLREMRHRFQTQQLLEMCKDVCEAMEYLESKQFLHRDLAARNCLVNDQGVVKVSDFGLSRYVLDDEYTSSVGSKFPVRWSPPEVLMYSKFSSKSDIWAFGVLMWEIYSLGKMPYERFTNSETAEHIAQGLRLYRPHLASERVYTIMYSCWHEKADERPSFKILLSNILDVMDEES
Description: The in vivo PD effects of an irreversible BTK inhibitor like compound (I) are determined by the extent and duration of covalent BTK occupancy by the inhibitor. BTK occupancy after treatment with Compound of Formula (I) (also referenced to as Compound (I)) was measured in an ex vivo immunoassay. The fraction of unoccupied BTK protein was assayed after in vitro incubation with a covalent biotinylated BTK probe, since compound (I) and the probe bind to BTK in a mutually exclusive manner. Unoccupied BTK, as well as total BTK relative protein levels were determined in lysates of selected tissues and levels of unoccupied BTK were normalized to total BTK protein levels in the same samples.
Oral treatment with compound (I) at a single dose of 3, 10, 30 and 100 mg/kg, given 2 hours prior to induction of the RPA response, reduced skin swelling in a dose-related manner. […] (FIG. 2)
The effects of compound (I) on acute skin hypersensitivity were also assessed after two oral doses of compound (I) in the mouse of model of passive cutaneous anaphylaxis (PCA) (Ovary 1958). The mouse PCA model was used at a low dose of sensitizing IgE antibody to minimize complement-dependent anaphylatoxins (Schafer et al. 2013, The journal of allergy and clinical immunology, 131(2), pp. 541; Hata et al. 1998, Journal of Experimental Medicine, 187(8), pp. 1235). […] (FIG. 3). Spleen occupancy at 2.5 hours post last dose ranged from 89.1 to 99.7% (representing peak occupancy) (FIG. 4).

T1 sequence (Q06187 whole entry): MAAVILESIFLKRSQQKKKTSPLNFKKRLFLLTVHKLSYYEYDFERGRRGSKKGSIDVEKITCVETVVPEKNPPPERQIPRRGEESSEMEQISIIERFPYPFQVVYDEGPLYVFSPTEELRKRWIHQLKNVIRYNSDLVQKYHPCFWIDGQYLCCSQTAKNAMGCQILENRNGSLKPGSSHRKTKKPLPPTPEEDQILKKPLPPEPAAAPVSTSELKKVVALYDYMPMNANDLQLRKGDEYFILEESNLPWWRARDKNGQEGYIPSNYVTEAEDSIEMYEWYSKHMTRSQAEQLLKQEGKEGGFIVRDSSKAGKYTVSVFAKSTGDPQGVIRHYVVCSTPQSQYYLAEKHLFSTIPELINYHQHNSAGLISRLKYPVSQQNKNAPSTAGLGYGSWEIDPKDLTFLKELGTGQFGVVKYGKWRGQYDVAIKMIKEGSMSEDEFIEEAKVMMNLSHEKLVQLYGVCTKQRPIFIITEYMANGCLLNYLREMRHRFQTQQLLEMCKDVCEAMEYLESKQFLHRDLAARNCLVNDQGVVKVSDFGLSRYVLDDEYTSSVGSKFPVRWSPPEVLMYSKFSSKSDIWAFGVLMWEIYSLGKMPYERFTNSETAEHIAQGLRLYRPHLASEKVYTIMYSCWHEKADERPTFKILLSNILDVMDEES

BTK occupancy in blood (BTK [1]; 10 mg q.d.): nearly complete
duration of BTK occupancy in blood (BTK [1]; blood): > 24 h
median BTK turnover T1/2 (BTK [1]; blood, after single dose): about 48 hours
time to refresh BTK protein pool to pre-dose levels (BTK [1]; blood, after single dose): about 10 days
duration of sustained BTK occupancy (BTK [1]; blood, single doses of 30 mg and higher): > 24 h
time of peak target (BTK) occupancy post dose (BTK [1]; peripheral blood): 0.5 h
receptor occupancy at 3 mg/kg (BTK [2]; 3 mg/kg): 68.1%
receptor occupancy at 10 mg/kg (BTK [2]; 10 mg/kg): 82.1%
receptor occupancy at 30 mg/kg (BTK [2]; 30 mg/kg): 91.3%
receptor occupancy at 100 mg/kg (BTK [2]; 100 mg/kg): 99.3%
Structure (SMILES): C=CC(=O)N(C)CCOc1c(N)ncnc1-c1cc(F)cc(NC(=O)c2ccc(C3CC3)cc2F)c1C [Compound (I), N-(3-(6-Amino-5-(2-(N-methylacrylamido)ethoxy)pyrimidin-4-yl)-5-fluoro-2-methylphenyl)-4-cyclopropyl-2-fluorobenzamide]
